Results on four molecules are retold here after patent publication US20240342111A1, “ISOMER-SPECIFIC NEUROPROTECTIVE EFFECT OF NATURAL RESERVATROL” (priority 2021, published 2024).

Experiment [1] concerns TyrRS. Briefly: Immunostaining of neuronal TyrRS under neurotoxic agents (NMDA, MPP+). It is filed as cell-based, rat. Conditions: neurotoxic agent alone (50 μM NMDA, 100 μM MPP+), 4 hours.
The test system of experiment [2] is ataxia telangiectasia mutated (ATM) kinase. The conditions noted are these: low dose 5 μM; cited from earlier work.
Experiment [3] deals with T1, TyrRS (Homo sapiens, UniProt P54577).
T1 construct: host or cells: HeLa cells
Conditions: low dose ≤5 μM, HeLa cells; cited from earlier work.

Experiment [4] concerns pSer10-H3. Briefly: Immunostaining of pSer10-H3 (ADP-ribosylation dependent DNA repair marker). It is filed as cell-based, rat. Conditions: Aβ 50 nM, 24 hours. The source says:
Ac-K56-H3 is a marker of genomic stability, see Driscoll, R., Hudson, A. & Jackson, S. P. Yeast Rtt109 promotes genome stability by acetylating histone H3 on lysine 56. Science 315, 649-652, doi:10.1126/science.1135862 (2007), and DNA damage, see Tjeertes, J. V., Miller, K. M. & Jackson, S. P. Screen for DNA-damage-responsive histone modifications identifies H3K9Ac and H3K56Ac in human cells. EMBO J 28, 1878-1889, doi:10.1038/emboj.2009.119 (2009), and inhibition of PARP1 causes the downregulation of RAD51, see Hegan, D. C. et al. Inhibition of poly(ADP-ribose) polymerase down-regulates BRCA1 and RAD51 in a pathway mediated by E2F4 and p130. Proc Natl Acad Sci U S A 107, 2201-2206, doi:10.1073/pnas.0904783107 (2010), and induces neurotoxicity, see Diaz-Hernandez, J. I., Moncada, S., Bolanos, J. P. & Almeida, A. Poly(ADP-ribose) polymerase-1 protects neurons against apoptosis induced by oxidative stress. Cell Death Differ 14, 1211-1221, doi:10.1038/sj.cdd.4402117 (2007) and Midorikawa, R., Takei, Y. & Hirokawa, N. KIF4 motor regulates activity-dependent neuronal survival by suppressing PARP-1 enzymatic activity. Cell 125, 371-383, doi:10.1016/j.cell.2006.02.039 (2006). […] The western blot images of the protein levels of HPF1 was quantified using ImageJ.
Coverslips were then mounted using DAPI (4′,6-diamidino-2-phenylindole)-supplemented mounting medium, Prolong Gold Antifade (Invitrogen) imaged with Leica DMI6000 epifluorescent microscope at 63×magnification.

Experiment [5] deals with phenyl-tRNA synthetase beta (PheRSβ). Briefly: Immunoblot for PheRSβ after treatment with Aβ42. Conditions: different doses of Aβ42, 24 hours. It is filed as cell-based, rat. On the procedure: (§1) Representative immunostaining images (scale bar, 20 μm) for neuronal TyrRS (spectral images) after treatment with neurotoxic agents result in TyrRS downregulation. […] The protein level of TyrRS was quantified by measuring the average intensity of fluorescence staining with regions defined by MAP2 (neurite marker) staining across n=3 experiments using n≥20 neurons for quantification per treatment condition. […] Rat cortical neurons (DIV 9) were treated with different doses of Aβ42 for 24 hours. All graphical representations depict mean±SEM from n=3 experiments with statistical significance calculated using paired Student's t-test.
(§2) Cultured neurons (DIV 9-10) were washed once with cold 1×PBS and lysed in cell lysis buffer (20 mM Tris-HCl (pH 7.5), 150 mM NaCl, 1 mM Na2EDTA, 1 mM EGTA, 1% Triton, 2.5 mM sodium pyrophosphate, 1 mM beta-glycerophosphate, 1 mM Na3VO4, 1 μg/ml leupeptin supplemented with protease inhibitor). The lysates were centrifuged at 10,000 RPM for 15 minutes at 4° C. to separate the chromatin-bound and soluble fractions. Lysates were quantified using Bio-Rad Protein Assay, and an equal amount of protein was loaded onto a 4 to 12% gradient gel (NuPAGE-Invitrogen). […] Quantification for the western blots was done using ImageJ (Version 1.53c).
For orientation: In western blotting, separated proteins are transferred to a membrane and probed.

In experiment [6] the test system is TyrRS. Kind of experiment: Immunoblot for TyrRS after treatment with Aβ42. The format is cell-based, rat. Conditions: different doses of Aβ42, 24 hours. The protocol:
as §1, §2

The target of experiment [7] is T2, TyrRS (Rattus norvegicus, UniProt Q4KM49).
T2 construct: Primary cortical neuron cultures were obtained from E18 Sprague Dawley rats' cortices; endogenous in cells; host or cells: rat primary cortical neurons (E18 Sprague Dawley)
T2 sequence (Q4KM49 1-528): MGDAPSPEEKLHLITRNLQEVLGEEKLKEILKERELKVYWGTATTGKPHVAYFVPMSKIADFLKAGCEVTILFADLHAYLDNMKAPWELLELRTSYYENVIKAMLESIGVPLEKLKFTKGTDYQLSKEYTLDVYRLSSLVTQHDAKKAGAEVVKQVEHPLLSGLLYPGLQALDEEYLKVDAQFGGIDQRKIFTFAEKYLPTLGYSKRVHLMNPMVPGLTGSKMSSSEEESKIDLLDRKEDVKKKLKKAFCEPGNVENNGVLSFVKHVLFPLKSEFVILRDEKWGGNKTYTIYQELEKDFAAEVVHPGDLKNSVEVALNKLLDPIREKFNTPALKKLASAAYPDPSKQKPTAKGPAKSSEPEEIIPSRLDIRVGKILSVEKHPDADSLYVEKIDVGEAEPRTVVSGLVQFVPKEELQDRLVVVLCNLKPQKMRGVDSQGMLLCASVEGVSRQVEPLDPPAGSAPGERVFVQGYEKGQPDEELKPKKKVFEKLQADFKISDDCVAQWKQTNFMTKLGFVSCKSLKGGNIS
Kind of experiment: Immunostaining of neuronal TyrRS, RSV alone or in combination with Aβ. The format is cell-based. The conditions noted are these: Aβ 50 nM alone, 16 hours.

T1 sequence (P54577 whole entry): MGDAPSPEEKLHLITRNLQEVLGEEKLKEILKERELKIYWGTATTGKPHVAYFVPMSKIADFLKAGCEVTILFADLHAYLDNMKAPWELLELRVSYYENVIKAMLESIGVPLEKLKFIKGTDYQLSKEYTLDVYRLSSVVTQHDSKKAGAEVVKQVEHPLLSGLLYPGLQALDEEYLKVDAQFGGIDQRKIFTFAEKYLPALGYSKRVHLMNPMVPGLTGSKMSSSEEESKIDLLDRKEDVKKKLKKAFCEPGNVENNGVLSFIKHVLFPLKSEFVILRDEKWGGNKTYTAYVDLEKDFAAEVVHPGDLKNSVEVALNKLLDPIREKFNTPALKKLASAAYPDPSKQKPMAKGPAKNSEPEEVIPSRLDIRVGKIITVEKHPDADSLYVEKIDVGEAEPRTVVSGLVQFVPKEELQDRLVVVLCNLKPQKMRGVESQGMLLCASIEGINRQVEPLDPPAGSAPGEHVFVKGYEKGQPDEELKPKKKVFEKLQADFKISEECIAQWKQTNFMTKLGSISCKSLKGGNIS

In the case of `C[n+]1ccc(-c2ccccc2)cc1` [MPP^+, 1-methyl-4-phenylpyridinium], in experiment [1], the “neuronal protein levels of TyrRS” value was “downregulate the neuronal protein levels of TyrRS”.

Regarding `CN[C@H](CC(=O)O)C(=O)O` [NMDA, N-Methyl-D-aspartate], the “neuronal protein levels of TyrRS” value in experiment [1] is recorded as “downregulate the neuronal protein levels of TyrRS”.

For the molecule `Oc1ccc(C=Cc2cc(O)cc(O)c2)cc1` [RSV, Resveratrol], in experiment [2], the ATM kinase activation result is given as “activate”. The “protein levels of TyrRS” value in experiment [3] is “upregulated the protein levels of TyrRS”.

For the molecule “human amyloid β protein fragment 1-42 [Aβ]”, the pSer10-H3 levels entry in experiment [4] is given as “upregulation”. The “PheRSβ protein level (immunoblot)” value in experiment [5] is recorded as “did not downregulate”. Besides, the “TyrRS protein level (immunoblot)” value in experiment [6] is listed as “downregulates TyrRS in a dose-dependent manner”. In experiment [7], the TyrRS protein levels result is given as “downregulation”.
